In US20220332733A1, “MATERIAL FOR WAVELENGTH CONVERSION, WAVELENGTH CONVERSION MEMBER, LIGHT EMITTING DEVICE, AND COMPOUND USED FOR SAME” (FUJIFILM Corporation, priority 2021, published 2022):

What was measured:
Assay type in all cases: physicochemical
[1] = Solubility of compound in solvents or raw material monomers, visual; conditions: summary of Table 3
Method: The solubility in the following solvents or media A to G as raw material monomers of a resin was evaluated. The evaluation method is as follows: 0.1 ml of a solvent was added to […] of each compound to dissolve the compound, and the solubility was visually determined based on the following evaluation ranks. In this test, evaluation rank “B” or higher is an acceptable level.

[2] = Relative fluorescence intensity of fluorescent latex dispersion; conditions: for Relative Fluorescence Intensity: relative to 6 μmol/g of the same compound, at emission maximum wavelength, dispersion diluted 200 times; for fluorescence intensity of fluorescent latex as the compound amount is increased (in words): compared with comparative compound (1), summary of Table 1
Method: As latex particles, particles having an average particle diameter of 150 nm, which were prepared by polymerizing a mixture of styrene and an acrylic acid in a mass ratio of 9:1 in a state of being dispersed in water, were used. The average particle diameter was measured using a dynamic light scattering method using Zetasizer Nano ZS (trade name, manufactured by Malvern Panalytical Ltd.) based on the above-described measurement conditions. 5 mL of THF was added dropwise to 25 mL of the latex dispersion with a solid content of 2% (solid content mass: 500 mg) prepared as above, and the mixture was stirred for 10 minutes. 2.5 mL of a THF solution of a test compound (any one of the compound (1-1), the compound (1-2), the compound (2-1), or the comparative compound (1)) was added dropwise thereto for 15 minutes. In Table 1, μmol/g in the column of compound amount indicates the number of moles of the compound used with respect to 1 g of the solid content of the latex. Completion of the dropwise addition of the test compound was followed by stirring for 30 minutes and concentration under reduced pressure to remove THF. After that, the particles were precipitated by centrifugation, followed by addition of ultrapure water and redispersion to manufacture fluorescent latex dispersions Nos. 101 to 104, 201, 202, 301 to 303, and c11 to c14 with a concentration of solid contents of 2 mass %.
The relative fluorescence intensity of the fluorescent latex dispersion with a concentration of solid contents of 2 mass % manufactured as above at an emission maximum wavelength was evaluated. The evaluation was performed using a latex dispersion diluted 200 times with ultrapure water with the use of a fluorescence spectrophotometer RF-5300PC (trade name) manufactured by Shimadzu Corporation for measurement of the emission maximum wavelength and the fluorescence intensity at the emission maximum wavelength.
In the respective test compounds, based on the fluorescence intensity at the emission maximum wavelength with a compound amount of 6 μmol/g, fluorescence intensities at the emission maximum wavelength with other compound amounts were evaluated as the relative fluorescence intensity.

[3] = Absorption characteristics of compound (molar absorption coefficient, half-width) in chloroform; conditions: for Half-Width: at maximal absorption wavelength
Method: Using a spectrophotometer UV-3600 (trade name) manufactured by Shimadzu Corporation, a molar absorption coefficient ϵ (1/mol·cm) and a half-width at a maximal absorption wavelength were measured and evaluated based on the following evaluation ranks. The half-width means a width (distance) between two wavelengths showing half the intensity of the maximal value at the maximum absorption wavelength. In the table, the evaluation of the molar absorption coefficient ϵ is described in the column of ϵ. As a measurement solvent, chloroform was used.
In this test, a molar absorption coefficient at evaluation rank “B” or higher (S to B) is regarded as acceptable, and due to the fact that the half-width is preferably narrow from the viewpoint of an improvement of color reproducibility, a half-width at evaluation rank “A” or higher (S or A) is regarded as acceptable.

[4] = compound amount 24 μmol/g latex solids
[5] = compound amount 48 μmol/g latex solids
[6] = compound amount 100 μmol/g latex solids

Row | Structure (SMILES) | solubility in the solvent or raw material monomer (in words) [1] | Relative Fluorescence Intensity [2, 4] | Relative Fluorescence Intensity [2, 5] | Relative Fluorescence Intensity [2, 6] | ε (molar absorption coefficient at maximal absorption wavelength) [3] | Half-Width [3] | fluorescence intensity of fluorescent latex as the compound amount is increased (in words) [2]
1 | CCOC(=O)C1=C(C)C2=C(c3cc(-c4ccc(C(C)(C)C)cc4)cc(-c4ccc(C(C)(C)C)cc4)c3)c3c(C)c(C(=O)OCC)c(C)n3[B-](F)(F)[N+]2=C1C [Comparative Compound (1), reference compound] | poor solubility | 3 times as large as No. c11 | 5 times as large as No. c11 | 6 times as large as No. c11 | D (less than 100,000) | S (equal to or less than 30 nm) | –
2 | CC1=C(C(=O)OC2C(C(C)(C)C)CC(C)CC2C(C)(C)C)C(N)=[N+]2C1=C(C)c1c(C)c(C(=O)OC3C(C(C)(C)C)CC(C)CC3C(C)(C)C)c(N)n1[B-]2(F)F (centres unmarked) [Compound (1-1)] | excellent solubility | 4 times as large as No. 101 | 7 times as large as No. 101 | 12 times as large as No. 101 | S (equal to or greater than 130,000) | S (equal to or less than 30 nm) | higher fluorescence intensity
3 | CC1CC(C(C)(C)C)C(OC(=O)C2=C(c3ccccc3)C3=Cc4c(-c5ccccc5)c(C(=O)OC5C(C(C)(C)C)CC(C)CC5C(C)(C)C)c(N)n4[B-](F)(F)[N+]3=C2N)C(C(C)(C)C)C1 (centres unmarked) [Compound (1-2)] | – | – | – | 10 times as large as No. 201 | S (equal to or greater than 130,000) | A (equal to or greater than 31 nm and equal to or less than 35 nm) | higher fluorescence intensity
4 | CC1=C(C(=O)OC2C(C(C)(C)C)CC(C)CC2C(C)(C)C)C(N)=[N+]2C1=C(C)c1c(C)c(C(=O)OC3C(C(C)(C)C)CC(C)CC3C(C)(C)C)c(N)n1[B-]2(F)C(F)(F)F (centres unmarked) [Compound (2-1)] | excellent solubility | – | 7 times as large as No. 301 | 12 times as large as No. 301 | S (equal to or greater than 130,000) | S (equal to or less than 30 nm) | higher fluorescence intensity
